How the values were obtained:
[1] = molecular target: T1, 5-HT2C receptor (Homo sapiens, UniProt P28335); test: 5-HT2 receptor-mediated Gq activation via Gq/γ1 dissociation BRET (5-HT2C); assay type: cell-based; conditions: primary 5-HT2C signaling via Gq-coupled mechanism compared to β-arrestin
T1 construct: expressed in transfected cells; host or cells: HEK293T
T1 sequence (P28335 33-458): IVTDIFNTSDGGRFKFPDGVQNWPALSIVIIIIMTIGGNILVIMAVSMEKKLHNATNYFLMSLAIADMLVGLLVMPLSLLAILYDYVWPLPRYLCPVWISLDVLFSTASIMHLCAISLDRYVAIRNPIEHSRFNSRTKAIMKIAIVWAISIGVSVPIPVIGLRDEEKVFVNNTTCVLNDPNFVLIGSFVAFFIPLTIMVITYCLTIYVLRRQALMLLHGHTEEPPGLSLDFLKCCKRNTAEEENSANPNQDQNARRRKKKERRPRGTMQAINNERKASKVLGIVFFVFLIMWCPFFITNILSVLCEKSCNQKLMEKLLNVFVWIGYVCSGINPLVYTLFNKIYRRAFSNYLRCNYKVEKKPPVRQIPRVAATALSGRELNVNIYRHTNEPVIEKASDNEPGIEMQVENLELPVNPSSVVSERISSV
Excerpt: (§1) To measure 5-HT2 receptor-mediated Gq activation via Gq/y1 dissociation as measured by Bioluminescence Resonance Energy Transfer (BRET) (McCorvy J D, Wacker D, Wang S, Agegnehu B, Liu J, Lansu K, Tribo A R, Olsen R H J, Che T, Jin J, Roth B L. Structural determinants of 5-HT2B receptor activation and biased agonism. Nat Struct Mol Biol. 2018; 25(9): 787-96), HEK293T cells were sub-cultured in Dulbecco's Modified Eagle Medium (DMEM) supplemented with 10% dialyzed fetal bovine serum (FBS) and were co-transfected in a 1:1:1:1 ratio with Rluc8-fused human Gaq (Gaq-Rluc8), a GFP2-fused to the C-terminus of human Gy1(Gy1-GFP2), human G131, and 5-HT2 receptor using TransiT-2020. After at least 18-24 hours, transfected cells were plated in poly-lysine coated 96-well white clear bottom cell culture plates in DMEM containing 1% dialyzed FBS at a density of 25,000-40,000 cells in 200 μL per well and incubated overnight. The following day, medium was decanted, and cells were washed with 60 μL of drug buffer (1×HBSS, 20 mM HEPES, pH 7.4), then 60 μL of drug buffer was added per well. Cells were pre-incubated at in a humidified atmosphere at 37° C. before receiving drug stimulation. […] Substrate addition occurred 15 minutes before reading and utilized 10 μL of the Rluc substrate coelenterazine 400a for Gq dissociation BRET^2 (Prolume/Nanolight, 5 μM final concentration). Plates were read for luminescence at 400 nm and fluorescent GFP2 emission at 510 nm at 1 second per well using a Mithras LB940 multimode microplate reader (e.g. one provided by Berthold). The BRET ratios of fluorescence/luminescence were calculated per well and were plotted as a function of drug concentration using Graphpad Prism 8 (Graphpad Software Inc., San Diego, CA). Data were normalized to % 5-HT stimulation and analyzed using nonlinear regression “log(agonist) vs. response” to yield Emax and EC50 parameter estimates. […]

[2] = molecular target: T2, 5-HT2A receptor (Homo sapiens, UniProt P28223); test: 5-HT2 receptor-mediated Gq activation via Gq/γ1 dissociation BRET (5-HT2A); assay type: cell-based; conditions: predicted based on the level of 5-HT2A agonist efficacy
T2 construct: expressed in transfected cells; host or cells: HEK293T
T2 sequence (P28223 whole entry): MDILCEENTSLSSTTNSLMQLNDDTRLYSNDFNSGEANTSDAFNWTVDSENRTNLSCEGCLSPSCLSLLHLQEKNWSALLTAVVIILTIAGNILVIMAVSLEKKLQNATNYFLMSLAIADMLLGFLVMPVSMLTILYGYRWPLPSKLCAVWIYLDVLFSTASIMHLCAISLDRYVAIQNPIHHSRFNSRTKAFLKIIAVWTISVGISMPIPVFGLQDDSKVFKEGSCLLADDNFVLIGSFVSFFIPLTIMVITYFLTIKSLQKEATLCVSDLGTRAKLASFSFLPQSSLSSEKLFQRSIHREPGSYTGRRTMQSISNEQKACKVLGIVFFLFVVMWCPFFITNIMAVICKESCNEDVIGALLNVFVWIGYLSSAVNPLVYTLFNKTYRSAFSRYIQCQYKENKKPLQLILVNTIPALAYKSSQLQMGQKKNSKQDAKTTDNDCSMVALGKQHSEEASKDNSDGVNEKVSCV
Excerpt: as §1

| SMILES | 5-HT2C Gq signaling bias? [1] | Hall or N-Hall? (hallucinogenic or non-hallucinogenic plastogenic effect) [2] |
| --- | --- | --- |
| CNCC1CC1c1cc(F)ccc1SC (stereo not drawn) | Yes | N-Hall |
| CNC[C@H]1C[C@@H]1c1cc(F)ccc1OC | Yes | N-Hall |
| CSc1ccc(F)cc1C1CC1CN(C)C (stereo not drawn) | Yes | N-Hall |

From US20260216101A1, “Selective Serotonin Receptor Modulators and Methods of Making and Using the Same” (Park City Bio, LLC, priority 2024, published 2026)
